These are literature values, as cited in patent US6979677B1, “Inhibition of vascular smooth muscle cell proliferation” (priority 1994, dated 2005).

For series [1], the system named is transplantable murine adenocarcinoma. The conditions noted are these: HSV-tk transfected adenocarcinoma treated with GCV.
Series [2] concerns lymphomas. The conditions noted are these: of 12 mice treated with GCV.
For series [3], the system named is nondividing rabbit arterial cells.
The subject of series [4] is cerebral glioma. The conditions noted are these: rats with HSV-tk-expressing murine fibroblasts, given GCV.

Consider `Nc1nc(O)c2ncn(COC(CO)CO)c2n1` [GCV, ganciclovir], for which the “tumor response in vivo” value in series [1] is listed as “regression”. Moreover, the “number of mice with complete tumor regression” value in series [2] is 11. For the same molecule, the “expression of HSV-tk-β-galactosidase construct under GCV treatment” value in series [3] is “unaffected”. Moreover, the “glioma regression, microscopically and macroscopically” value in series [4] was “regressed completely”.
